“Also recorded” adds a separate entry of the source. Residues, ends and D or L forms follow the SMILES beside them.
Key:
DocSTm [1] = experiment: Surface plasmon resonance binding to immobilised Doc; design: species or system S. Typhimurium; conditions: for fold decrease in affinity (given as decrease/loss in Kd) compared with peptide 1: SPR Kd relative to wild-type peptide 1; for koff × 10^-6 / kon × 10^6: 1:1 kinetic fit, mean ± SD of at least 3 replicates; for kon × 10^6: single-cycle kinetics (multicycle for PhdSTm1-73); for Half-life of the complex: t1/2 = ln2 / koff
Experimental: Experiments were performed in a Biacore S200 (Cytiva) with a Series S sensor chip NTA (Cytiva). The data was analyzed using the Biacore Evaluation Software (Cytiva) and curves were plotted using GraphPad Prism 5 (GraphPad Software, U.S.A.). All experiments were performed at 22 °C with a running buffer containing 10 mM HEPES, 500 mM NaCl, 50 μM EDTA, and 0.005% (v/v) TWEEN 20 at pH 8.0. The surface was conditioned following the standard manufacturer’s guidelines and protein immobilization was performed with a 30–60 s pulse (flow rate of 5 μL/min) of Doc (150 nM) in running buffer. […] Surface regeneration was performed with a 1 min pulse of 0.5 M imidazole followed by a 1 min pulse of 0.35 M of EDTA at pH 8.0.
Binding to Doc was performed using a multicycle kinetics (MCK) setup for peptides 7, 10, and 14, while the remaining samples were tested using a single-cycle kinetics (SCK) setup. The surface was fully regenerated in between each analyte in both cases. In the MCK experiments, increasing concentrations of each analyte were injected with an 80 s pulse (30 μL/min) and dissociation times varied depending on the time required to fully dissociate the complex. The double-referenced sensorgrams (raw data subtracted from a blank injection and reference surface responses) were analyzed using a kinetic and/or a steady-state 1:1 binding model. In the SCK experiments, typically six concentrations of each analyte were sequentially injected with 80 s pulses (30 μL/min), and dissociation times varied depending on the time required to dissociate at least 5% of the complex. The double-referenced sensorgrams were fitted using a kinetic 1:1 binding model.
At least three independent replicates were measured for each analyte (ESI section 5). When a steady-state fit was applied, the reported Kd and its uncertainty correspond, respectively, to the average and standard deviations of the Kd obtained in each measurement. When a kinetic fit was applied, the reported rate constants (kon and koff) and their uncertainties correspond, respectively, to the average and standard deviations of the rate constants obtained in each measurement. In this case, reported Kd were calculated using the equation below, and the standard deviation of the rate constants was propagated. [drawing 1]

[2] = test system: S. Typhimurium (14028) Δphd-doc::Km strains coexpressing DocSTm; experiment: Growth rescue experiment in S. Typhimurium; type: cell-based; conditions: coexpression of DocSTm (pBAD33, arabinose) and Phd construct (pCA24N, basal expression); OD600 over time, M9 minimal medium; average of three independent experiments
Experimental: The cotransformations above were also performed with an empty pBAD33 plasmid, as a control for the absence of DocSTm expression.
For the growth rescue experiment, overnight (1% tryptone, 0.5% yeast extract, 0.5% NaCl, 1% glucose, 100 μg/mL of carbenicillin, and 34 μg/mL of chloramphenicol) cultures of the generated S. Typhimurium strains were diluted to an OD600 of approximately 0.006 into fresh M9 minimal medium supplemented with 0.5% or 1% arabinose, 0.4% glycerol, 0.4% casamino acids, 100 μg/mL of carbenicillin, and 34 μg/mL of chloramphenicol. Cell growth at a given time was monitored at OD600 with a Genesys 140 Visible Spectrophotometer (Thermo Scientific).

DocSTm [3] = experiment: Differential scanning fluorimetry (thermal stabilisation of Doc); type: binding, S. Typhimurium; conditions: for melting temperature shift ΔTm: DSF, DocSTm 5 μM, analyte 50 μM, Tm with analyte minus Tm of free DocSTm (42.9 ± 0.9 °C), SYPRO Orange, 20 mM K2HPO4, 50 mM (NH4)2SO4, pH 8.0, triplicate; for Average Tm: average of 3 replicates
Experimental: Experiments were performed in a Mx3005P qPCR System (Agilent) collecting fluorescence data with a temperature ramp of 25 to 95 °C. Samples were prepared in a buffer containing 20 mM K2HPO4 and 50 mM (NH4)2SO4 at pH 8.0. The SYPRO Orange dye (Sigma-Aldrich, 5000× stock in DMSO) was used to monitor protein denaturation and was diluted to a final concentration of 3×. For binding experiments, the final concentration of Doc was 5 μM. Each condition was performed in triplicate (ESI section 4) and the melting curves were plotted using GraphPad Prism 5 (GraphPad Software, U.S.A.). The melting temperatures were obtained by fitting the sigmoidal section of the curves to a Boltzmann sigmoid function.

DocSTm [4] = experiment: Dot blot phosphorylation assay (EF-Tu phosphorylation by Doc); type: biochemical, S. Typhimurium; conditions: α-pThr, DocSTm 1 μM, EF-TuSTm 3 μM, ATP 1 mM, inhibitor 10 μM to 5 nM (3-fold dilutions), 16 h at RT
Experimental: Samples were prepared to a final volume of 10 μL. […] Samples were incubated for 16 h at RT and subsequently spotted on a nitrocellulose membrane. Phosphorylated EF-Tu was detected by immunodecoration using a rabbit monoclonal antiphosphothreonine antibody (Abcam, ab218195) at 1:2000 dilution (1 h at 4 °C), followed by incubation with a goat antirabbit IgG (H+L) HRP conjugate antibody (Advansta) at 1:10 000 dilution (1 h at RT). Chemiluminescence was developed using the HRP Luminata kit (Merck, WBLUR0100) and captured by an ImageQuant LAS4000 Western blot imaging system (Cytiva).

[5] = DocSTm 5 µM + 50 µM binder, replicate 1
[6] = DocSTm 5 µM + 50 µM binder, replicate 2
[7] = DocSTm 5 µM + 50 µM binder, replicate 3
[8] = SPR, kinetic fit, KD calculated from mean koff and kon, SD propagated, 22 °C, pH 8.0

Molecule	fold decrease in affinity (given as decrease/loss in Kd) compared with peptide 1 (DocSTm [1])	melting temperature shift ΔTm (DocSTm [3])	Average Tm (DocSTm [3]; DocSTm 5 µM + 50 µM binder)	Tm (DocSTm [3]; [5])	Tm (DocSTm [3]; [6])	Tm (DocSTm [3]; [7])	inhibition of EF-TuSTm phosphorylation by DocSTm (in words) (DocSTm [4])	Kd (DocSTm [1]; SPR kinetic fit, replicate 1)	Kd (DocSTm [1]; SPR kinetic fit, replicate 2)	Kd (DocSTm [1]; SPR kinetic fit, replicate 3)	koff × 10^-6 (DocSTm [1]; SPR, 22 °C, pH 8.0)	kon × 10^6 (DocSTm [1]; SPR, 22 °C, pH 8.0)	Kd (DocSTm [1]; [8])	Half-life of the complex (DocSTm [1])	other results
CSCC[C@H](NC(=O)[C@H](C)NC(=O)[C@H](C)NC(=O)[C@H](C)NC(=O)[C@H](Cc1ccccc1)NC(=O)[C@H](CCC(=O)O)NC(=O)[C@H](CC(=O)O)NC(=O)[C@H](CC(=O)O)NC(=O)[C@H](CCSC)NC(=O)[C@H](Cc1c[nH]c2ccccc12)NC(C)=O)C(=O)N[C@@H](C)C(=O)N[C@H](C(=O)N[C@@H](Cc1c[nH]cn1)C(=O)NCC(=O)N[C@@H](CC(N)=O)C(=O)N[C@@H](CCC(=O)O)C(=O)N[C@@H](CC(C)C)C(=O)N[C@@H](CCCNC(=N)N)C(=O)N[C@@H](CCC(=O)O)C(=O)N[C@@H](CC(C)C)C(=O)N[C@@H](C)C(=O)N[C@@H](CC(=O)O)C(=O)N[C@@H](CCCCN)C(=O)O)C(C)C [peptide 7] (Ac-WMDDEFAAAMAVHGNELRELADK-OH; C-terminus assumed)	~300 fold	15.5 ± 1.5 °C	58.4 ± 1.2 °C	59.7 °C	57.7 °C	57.6 °C	–	–	–	–	–	–	–	–	Kd (DocSTm [1]; SPR multicycle, steady-state fit, replicate 1): 25.4 ± 3 nM; Kd (DocSTm [1]; SPR multicycle, steady-state fit, replicate 2): 19.4 ± 2.2 nM; Kd (DocSTm [1]; SPR multicycle, steady-state fit, replicate 3): 15.1 ± 0.09 nM; Kd (DocSTm [1]; SPR, multicycle kinetics, steady-state 1:1 fit, mean ± SD of 3 replicates): 19.9 ± 5.18 nM; rescue of Salmonella growth from DocSTm-induced growth inhibition (in words) [2]: unable to rescue growth
CC[C@H](C)[C@H](NC(=O)[C@H](C)NC(=O)[C@H](C)NC(=O)[C@H](Cc1ccccc1)NC(=O)[C@H](CCC(=O)O)NC(=O)[C@H](Cc1c[nH]c2ccccc12)NC(C)=O)C(=O)N[C@@H](CCSC)C(=O)N[C@@H](C)C(=O)N[C@H](C(=O)N[C@@H](Cc1c[nH]cn1)C(=O)NCC(=O)N[C@@H](CC(N)=O)C(=O)N[C@@H](CCC(=O)O)C(=O)N[C@@H](CC(C)C)C(=O)N[C@@H](CCCNC(=N)N)C(=O)N[C@@H](CCC(=O)O)C(=O)N[C@@H](CC(C)C)C(=O)N[C@@H](C)C(=O)N[C@@H](CC(=O)O)C(=O)N[C@@H](CCCCN)C(=O)O)C(C)C [peptide 21] (Ac-WEFAAIMAVHGNELRELADK-OH; N-terminus and C-terminus assumed)	–	19.3 ± 0.9 °C	62.2 ± 0.2 °C	62.3 °C	62.0 °C	62.4 °C	inhibition of DocSTm comparable to 1	0.41 nM	0.412 nM	0.365 nM	496 ± 58 ×10^-6 s-1	1.252 ± 0.080 ×10^6 M-1 s-1	0.396 ± 0.052 nM	23.4 ± 3 min	–
CC[C@H](C)[C@H](NC(=O)[C@H](C)NC(=O)[C@H](C)NC(=O)[C@H](Cc1ccccc1)NC(=O)[C@H](CCC(=O)O)NC(=O)[C@H](Cc1c[nH]c2ccccc12)NC(C)=O)C(=O)N[C@@H](CCSC)C(=O)N[C@@H](C)C(=O)N[C@H](C(=O)N[C@@H](Cc1c[nH]cn1)C(=O)NCC(=O)N[C@@H](CC(N)=O)C(=O)N[C@@H](CCC(=O)O)C(=O)N[C@@H](CC(C)C)C(=O)N[C@@H](CCCNC(=N)N)C(=O)N[C@@H](CCC(=O)O)C(=O)N[C@@H](CC(C)C)C(=O)N[C@@H](C)C(=O)O)C(C)C [peptide 22] (Ac-WEFAAIMAVHGNELRELA-OH; N-terminus and C-terminus assumed)	–	16.3 ± 0.9 °C	59.2 ± 0.3 °C	58.89 °C	59.16 °C	59.42 °C	severe loss of inhibitory activity; also recorded: poor DocSTm inhibitors	0.342 nM	0.336 nM	0.365 nM	503 ± 16 ×10^-6 s-1	1.449 ± 0.085 ×10^6 M-1 s-1	–	22.8 ± 0.6 min	–
CC[C@H](C)[C@H](NC(=O)[C@H](C)NC(=O)[C@H](C)NC(=O)[C@H](Cc1ccccc1)NC(=O)[C@H](Cc1c[nH]c2ccccc12)NC(C)=O)C(=O)N[C@@H](CCSC)C(=O)N[C@@H](C)C(=O)N[C@H](C(=O)N[C@@H](Cc1c[nH]cn1)C(=O)NCC(=O)N[C@@H](CC(N)=O)C(=O)N[C@@H](CCC(=O)O)C(=O)N[C@@H](CC(C)C)C(=O)N[C@@H](CCCNC(=N)N)C(=O)N[C@@H](CCC(=O)O)C(=O)N[C@@H](CC(C)C)C(=O)O)C(C)C [peptide 23] (Ac-WFAAIMAVHGNELREL-OH; N-terminus and C-terminus assumed)	30 fold	7.9 ± 1.0 °C	50.7 ± 0.3 °C	50.54 °C	50.60 °C	51.08 °C	inactive in all concentrations tested; also recorded: poor DocSTm inhibitors	1.85 nM	1.94 nM	2.18 nM	2794 ± 42 ×10^-6 s-1	1.413 ± 0.136 ×10^6 M-1 s-1	1.98 ± 0.193 nM	4.14 ± 0.06 min	–
Ac-WNELRELADK-OH [compound 25]	–	1.3 ± 0.9 °C	44.2 ± 0.1 °C	44.1 °C	44.2 °C	44.4 °C	inactive	–	–	–	–	–	–	–	binding to DocSTm by SPR (in words) (DocSTm [1]; SPR): Affinity was too weak to be determined by SPR; also recorded: no measurable affinities could be obtained by SPR; Average Tm (DocSTm [3]; DocSTm 5 µM + 100 µM peptide): 43.3 ± 0.1 °C; Tm (DocSTm [3]; DocSTm 5 µM + 100 µM peptide, replicate 1): 43.2 °C; Tm (DocSTm [3]; DocSTm 5 µM + 100 µM peptide, replicate 2): 43.2 °C; Tm (DocSTm [3]; DocSTm 5 µM + 100 µM peptide, replicate 3): 43.4 °C
